Broadly, the Kd is a measure of binding affinity in units of concentration.

Where two headings read alike, the source gives them in different places.

The target in the assay is T1, integrin αvβ3 (Homo sapiens, UniProt P05106+P06756).
T1 construct: gene ITGAV; purified human αvβ3 Integrin; with integrin αv subunit (ITGAV, P06756)
The assay is described as follows: SPR (Biacore S200, integrin immobilized on CM5 chip, steady-state model). Format: binding.

T1 sequence (P06756 31-889): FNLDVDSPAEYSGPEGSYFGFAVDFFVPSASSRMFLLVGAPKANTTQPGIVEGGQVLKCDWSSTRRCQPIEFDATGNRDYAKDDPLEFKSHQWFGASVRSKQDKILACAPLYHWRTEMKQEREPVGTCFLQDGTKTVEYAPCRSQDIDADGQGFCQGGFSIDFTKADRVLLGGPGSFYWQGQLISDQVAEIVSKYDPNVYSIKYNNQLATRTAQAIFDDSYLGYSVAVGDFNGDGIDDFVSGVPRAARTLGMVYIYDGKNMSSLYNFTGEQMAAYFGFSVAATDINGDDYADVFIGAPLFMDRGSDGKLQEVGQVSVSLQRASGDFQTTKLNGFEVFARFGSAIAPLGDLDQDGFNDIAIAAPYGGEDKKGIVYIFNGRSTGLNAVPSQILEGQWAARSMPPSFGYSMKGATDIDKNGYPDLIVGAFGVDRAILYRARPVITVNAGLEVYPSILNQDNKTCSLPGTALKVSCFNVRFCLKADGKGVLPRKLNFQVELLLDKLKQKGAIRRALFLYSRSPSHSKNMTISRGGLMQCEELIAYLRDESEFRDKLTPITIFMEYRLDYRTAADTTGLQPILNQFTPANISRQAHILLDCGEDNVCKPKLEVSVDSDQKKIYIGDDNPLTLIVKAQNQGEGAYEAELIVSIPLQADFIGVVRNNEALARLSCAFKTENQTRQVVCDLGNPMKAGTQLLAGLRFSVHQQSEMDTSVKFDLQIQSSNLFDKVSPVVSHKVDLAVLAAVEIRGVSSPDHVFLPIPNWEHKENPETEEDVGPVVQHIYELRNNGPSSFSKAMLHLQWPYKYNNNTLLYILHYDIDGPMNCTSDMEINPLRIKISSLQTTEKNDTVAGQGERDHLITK
T1 sequence (P06756 891-1048): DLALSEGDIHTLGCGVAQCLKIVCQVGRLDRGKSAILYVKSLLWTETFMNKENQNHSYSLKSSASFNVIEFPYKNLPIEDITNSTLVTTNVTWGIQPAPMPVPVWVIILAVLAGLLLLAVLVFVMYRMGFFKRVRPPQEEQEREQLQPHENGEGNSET
T1 sequence (P05106 27-788): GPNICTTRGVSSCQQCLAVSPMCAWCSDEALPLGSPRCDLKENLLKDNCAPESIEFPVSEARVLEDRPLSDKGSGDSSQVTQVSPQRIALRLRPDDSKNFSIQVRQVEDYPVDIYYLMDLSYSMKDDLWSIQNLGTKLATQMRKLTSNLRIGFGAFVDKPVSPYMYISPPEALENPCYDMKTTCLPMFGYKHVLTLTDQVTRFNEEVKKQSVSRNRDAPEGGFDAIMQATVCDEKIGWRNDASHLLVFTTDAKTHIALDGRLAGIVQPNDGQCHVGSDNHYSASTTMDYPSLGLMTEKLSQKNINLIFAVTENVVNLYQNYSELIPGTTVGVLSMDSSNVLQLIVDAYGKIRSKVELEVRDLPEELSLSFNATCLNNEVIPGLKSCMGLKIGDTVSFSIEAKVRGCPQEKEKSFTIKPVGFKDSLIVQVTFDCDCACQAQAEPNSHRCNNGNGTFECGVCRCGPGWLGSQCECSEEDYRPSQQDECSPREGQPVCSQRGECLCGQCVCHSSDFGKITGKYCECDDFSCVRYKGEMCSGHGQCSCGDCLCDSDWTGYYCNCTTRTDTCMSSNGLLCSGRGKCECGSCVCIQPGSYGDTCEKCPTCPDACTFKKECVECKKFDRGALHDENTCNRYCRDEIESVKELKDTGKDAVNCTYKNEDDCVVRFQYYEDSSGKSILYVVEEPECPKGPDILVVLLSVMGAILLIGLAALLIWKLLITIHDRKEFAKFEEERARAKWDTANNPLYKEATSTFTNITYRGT

Turning to `CC(C)[C@@H](O)CC[C@@H](C)[C@H]1CC[C@H]2[C@@H]3CC=C4C[C@@H](O)CC[C@]4(C)[C@H]3CC[C@]12C` [24HC, 24-(S)-hydroxycholesterol], the Kd turned out to be 0.151 µM. For the molecule `C[C@H](CCCC(C)(C)O)[C@H]1CC[C@H]2[C@@H]3CC=C4C[C@@H](O)CC[C@]4(C)[C@H]3CC[C@]12C` [25HC, 25-hydroxycholesterol], for the setting “read-out: Kd”, the Kd was 0.0566 µM.

The values above are taken from PMC10244445, “Molecular basis for the recognition of 24-(S)-hydroxycholesterol by integrin αvβ3” (Scientific Reports, 2023).
